Drawing on PubChem BioAssay AID330 (DTP/NCI, 2004), this text covers T/C for 24 molecules.

This experiment has as its system P388 leukemia ip, CD2F1 mice, survival T/C. In words: NCI In Vivo Anticancer Drug Screen. Data for tumor model P388 Leukemia (intraperitoneal) in CD2F1 (CDF1) mice. Conditions: endpoint: median survival time, higher = longer survival. In short, it runs like this:
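Mice carrying the transplanted tumor received test compound or vehicle. Survival was recorded in each group, and the value is the treated-group measurement divided by that of the vehicle-treated control group.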

Setting [1] is: dose: 50.0 mg/kg/injection, schedule: Q01DX005 (ip), vehicle: saline with Tween-80.
Setting [2] is: dose: 100.0 mg/kg/injection, schedule: Q01DX005 (ip), vehicle: saline with Tween-80.
Setting [3] is: dose: 50.0 mg/kg/injection, schedule: Q01DX009 (ip), vehicle: saline with Tween-80.
Setting [4] is: dose: 100.0 mg/kg/injection, schedule: Q01DX009 (ip), vehicle: saline with Tween-80.
Setting [5] is: dose: 200.0 mg/kg/injection, schedule: Q01DX009 (ip), vehicle: saline with Tween-80.
Setting [6] is: dose: 25.0 mg/kg/injection, schedule: Q01DX009 (ip), vehicle: saline.
[7] abbreviates: dose: 50.0 mg/kg/injection, schedule: Q01DX009 (ip), vehicle: saline.
[8] abbreviates: dose: 100.0 mg/kg/injection, schedule: Q01DX009 (ip), vehicle: saline.
[9] abbreviates: dose: 200.0 mg/kg/injection, schedule: Q01DX009 (ip), vehicle: saline.
[10] abbreviates: dose: 50.0 mg/kg/injection, schedule: Q01DX005 (ip), vehicle: Klucel (hydroxypropylcellulose) (HPC).
The mark [11] stands for this setting: dose: 12.5 mg/kg/injection, schedule: Q01DX005 (ip), vehicle: saline with Tween-80.
The mark [12] stands for this setting: dose: 25.0 mg/kg/injection, schedule: Q01DX005 (ip), vehicle: saline with Tween-80.

Each structure is given as a SMILES string. “And” between values parts separate entries of the source, which are not always exact repeats. Equal entries are not always repeated. Toxic doses and inconclusive results are not listed.

Consider `Nc1ccc2ccccc2c1[N+](=O)[O-]`, for which the T/C runs as follows: (dose: 50.0 mg/kg/injection, schedule: Q01DX009 (ip), vehicle: Klucel (hydroxypropylcellulose) (HPC)) 105 % of control; (dose: 100.0 mg/kg/injection, schedule: Q01DX009 (ip), vehicle: Klucel (hydroxypropylcellulose) (HPC)) 102 % of control; (dose: 200.0 mg/kg/injection, schedule: Q01DX009 (ip), vehicle: Klucel (hydroxypropylcellulose) (HPC)) 113 % of control.

`Nc1nnc2nc(C3(c4nc5nnc(N)n5[nH]c4=O)Cc4ccccc4C3=O)c(=O)[nH]n12`: the T/C runs as follows: under setting [1], 91 % of control; under setting [2], 100 % of control; (dose: 200.0 mg/kg/injection, schedule: Q01DX005 (ip), vehicle: saline with Tween-80) 108 % of control.

For `CC(=O)c1cc(CN(C)C)c(O)c(CN(C)C)c1`, the T/C (dose: 50.0 mg/kg/injection, schedule: Q01DX005 (ip), vehicle: saline) was 101 % of control; the T/C (dose: 100.0 mg/kg/injection, schedule: Q01DX005 (ip), vehicle: saline) was 99 % of control; the T/C (dose: 200.0 mg/kg/injection, schedule: Q01DX005 (ip), vehicle: saline) was 99 % of control.

As to `N#CC[N+]1(Cc2ccccn2)CCCC1`, the T/C reads like this: (dose: 60.0 mg/kg/injection, schedule: Q01DX005 (ip), vehicle: saline) 101 % of control; (dose: 120.0 mg/kg/injection, schedule: Q01DX005 (ip), vehicle: saline) 108 % of control.

`COc1cc(CCN(C)C)c(C2C(=O)c3ccc4c(c3C2=O)OCO4)cc1OC` (centres undefined): the T/C is 103 % of control (dose: 0.15 mg/kg/injection, schedule: Q01DX005 (ip), vehicle: Klucel (hydroxypropylcellulose) (HPC)); 104 % of control (dose: 0.3 mg/kg/injection, schedule: Q01DX005 (ip), vehicle: Klucel (hydroxypropylcellulose) (HPC)); 100 % of control (dose: 0.6 mg/kg/injection, schedule: Q01DX005 (ip), vehicle: Klucel (hydroxypropylcellulose) (HPC)); 99 % of control (dose: 1.2 mg/kg/injection, schedule: Q01DX005 (ip), vehicle: Klucel (hydroxypropylcellulose) (HPC)).

For `CC(=O)Nc1ccc(OCCOCCOc2ccc(NC(C)=O)cc2)cc1`, the T/C is, setting by setting: under setting [3], 92 % of control; under setting [4], 94 % of control; under setting [5], 91 % of control.

In the case of `COC(=O)C1(C(=O)OC)CCCC2=NOC3CCC1C23` (centres undefined), the T/C is, setting by setting: (dose: 6.25 mg/kg/injection, schedule: Q01DX002 (ip), vehicle: Klucel (hydroxypropylcellulose) (HPC)) 107 % of control; (dose: 12.5 mg/kg/injection, schedule: Q01DX002 (ip), vehicle: Klucel (hydroxypropylcellulose) (HPC)) 100 % of control; (dose: 25.0 mg/kg/injection, schedule: Q01DX002 (ip), vehicle: Klucel (hydroxypropylcellulose) (HPC)) 93 % of control.

For the molecule `CC1CC(C#N)=C(NC#N)NC1=O` (centres undefined), the T/C runs as follows: (dose: 7.5 mg/kg/injection, schedule: Q01DX005 (ip), vehicle: saline with Tween-80) 108 % of control; (dose: 7.5 mg/kg/injection, schedule: Q01DX005 (ip), vehicle: saline) 101 % of control; (dose: 15.0 mg/kg/injection, schedule: Q01DX005 (ip), vehicle: saline with Tween-80) 111 % of control; (dose: 15.0 mg/kg/injection, schedule: Q01DX005 (ip), vehicle: saline) 106 % of control.

With `C1CC2CC3CCCCN3COC2C1` (centres undefined), the T/C is 102 % of control (dose: 100.0 mg/kg/injection, schedule: Q04DX003 (ip), vehicle: saline) and 118 % of control (dose: 200.0 mg/kg/injection, schedule: Q04DX003 (ip), vehicle: saline).

Take `BrC(Br)(c1ccccc1)C1OCCO1`: the T/C runs as follows: under setting [3], 109 % of control; under setting [4], 109 % of control; under setting [5], 113 % of control.

With `Cc1noc(N)c1C`, the T/C under setting [6] was 98 % of control, the T/C under setting [7] is 98 % of control, the T/C under setting [8] is 98 % of control and the T/C under setting [9] is 95 % of control.

Consider `CCCN(CCC)CCSC(=S)NCCOC`, for which the T/C runs as follows: (dose: 100.0 mg/kg/injection, schedule: Q04DX003 (ip), vehicle: saline with Tween-80) 100 % of control; (dose: 200.0 mg/kg/injection, schedule: Q04DX003 (ip), vehicle: saline with Tween-80) 100 % of control.

Turning to `CCCCN(CCCC)c1nn[nH]n1`, the T/C is 89 % of control under setting [10]; 94 % of control (dose: 100.0 mg/kg/injection, schedule: Q01DX005 (ip), vehicle: Klucel (hydroxypropylcellulose) (HPC)); 95 % of control (dose: 200.0 mg/kg/injection, schedule: Q01DX005 (ip), vehicle: Klucel (hydroxypropylcellulose) (HPC)).

On to `CCOC(=O)CNC(=O)Nc1c(C)n(C)n(-c2ccccc2)c1=O`, for which the T/C was 103 % of control under setting [7], 100 % of control under setting [8] and 97 % of control under setting [9].

Consider `Cc1cc(N/N=C/c2ccc(F)cc2)c2cc3c(cc2n1)OCO3`, for which the T/C is 104 % of control (dose: 12.5 mg/kg/injection, schedule: Q01DX005 (ip), vehicle: Klucel (hydroxypropylcellulose) (HPC)); 104 % of control (dose: 25.0 mg/kg/injection, schedule: Q01DX005 (ip), vehicle: Klucel (hydroxypropylcellulose) (HPC)); 107 % of control and 109 % of control under setting [10].

For `Nc1nc(N)c2c(ccc3c2ccn3Cc2cccc([N+](=O)[O-])c2)n1`, the T/C is, setting by setting: (dose: 1.56 mg/kg/injection, schedule: Q01DX005 (ip), vehicle: saline with Tween-80) 100 % of control and 119 % of control; (dose: 3.12 mg/kg/injection, schedule: Q01DX005 (ip), vehicle: saline with Tween-80) 110 % of control.

Turning to `Nc1ccc(C(=O)Nc2ccc(NC(=O)c3ccco3)c(O)c2)cc1`, the T/C was 94 % of control (dose: 60.0 mg/kg/injection, schedule: Q01DX005 (ip), vehicle: saline with Tween-80); 91 % of control (dose: 120.0 mg/kg/injection, schedule: Q01DX005 (ip), vehicle: saline with Tween-80); 89 % of control (dose: 240.0 mg/kg/injection, schedule: Q01DX005 (ip), vehicle: saline with Tween-80).

In the case of `NC(=O)NC(CC(=O)O)C(=O)O` (centres undefined), the T/C is 92 % of control under setting [3], 101 % of control under setting [4] and 106 % of control under setting [5].

Consider `CNC(=O)OCc1c(COC(=O)NC)c(-c2ccccc2)n(-c2ccccc2)c1C`, for which the T/C under setting [11] was 150 % of control; the T/C under setting [12] is 169 % of control; the T/C under setting [1] was 157 % of control and 176 % of control; the T/C under setting [2] was 118 % of control.

Regarding `CC(C)c1cc(C(=O)O)c(O)c(C(C)C)c1.CC(C)c1cc(C(=O)O)c(O)c(C(C)C)c1.[Cu]`, the T/C runs as follows: under setting [11], 96 % of control; under setting [12], 90 % of control; under setting [1], 98 % of control.

For `CCC(=O)NC(C)C(=O)O` (centres undefined), the T/C (dose: 6.25 mg/kg/injection, schedule: Q01DX009 (ip), vehicle: saline) is 100 % of control; the T/C (dose: 12.5 mg/kg/injection, schedule: Q01DX009 (ip), vehicle: saline) is 88 % of control; the T/C under setting [6] was 88 % of control; the T/C under setting [8] was 94 % of control; the T/C under setting [9] was 97 % of control.

As to `CC(=O)OCC1OC(n2ccc3c(=O)n(C)c(=O)[nH]c32)C(OC(C)=O)C(OC(C)=O)C1OC(C)=O` (centres undefined), the T/C runs as follows: (dose: 100.0 mg/kg/injection, schedule: Q01DX001 (ip), vehicle: saline with Tween-80) 92 % of control; (dose: 200.0 mg/kg/injection, schedule: Q01DX001 (ip), vehicle: saline with Tween-80) 105 % of control; (dose: 400.0 mg/kg/injection, schedule: Q01DX001 (ip), vehicle: saline with Tween-80) 108 % of control.

With `COc1cccc(-n2c(SC)nccc2=O)c1`, the T/C runs as follows: (dose: 100.0 mg/kg/injection, schedule: Q04DX003 (ip), vehicle: Klucel (hydroxypropylcellulose) (HPC)) 100 % of control; (dose: 200.0 mg/kg/injection, schedule: Q04DX003 (ip), vehicle: Klucel (hydroxypropylcellulose) (HPC)) 101 % of control; (dose: 400.0 mg/kg/injection, schedule: Q04DX003 (ip), vehicle: Klucel (hydroxypropylcellulose) (HPC)) 100 % of control.

On to `Clc1ccc(N=NN2CN3CN(C2)CN(N=Nc2ccc(Cl)cc2)C3)cc1`, for which the T/C by setting is: (dose: 100.0 mg/kg/injection, schedule: Q04DX002 (ip), vehicle: Klucel (hydroxypropylcellulose) (HPC)) 94 % of control; (dose: 200.0 mg/kg/injection, schedule: Q04DX002 (ip), vehicle: Klucel (hydroxypropylcellulose) (HPC)) 99 % of control; (dose: 400.0 mg/kg/injection, schedule: Q04DX002 (ip), vehicle: Klucel (hydroxypropylcellulose) (HPC)) 91 % of control.
